Source: patent US12686704B2, “Procoagulant peptides and use thereof” (RAMBAM MED-TECH LTD., priority 2021, dated 2026)

Legend:
HUVEC cells [1] = assay: Immunostaining of heparanase, TF, TFPI and TFPI-2 in HUVECs; assay type: cell-based, human; settings: 10 μg/ml; overnight incubation at 37° C.; vs control cells
Method: FIGS. 6A-6F include micrographs of immunohistochemistry assays showing that heparanase procoagulant peptides increase the level of heparanase in HUVECs. Ten (10) μg/ml of peptide 16 (6B-6C) or 10 μg/ml of peptide 16AC (6E-6F) was added to HUVEC cells and compared to control cells (6A-6D). After 30 min or overnight incubation at 37° C., the cells were fixed using formaldehyde 4%, permeabilized, blocked and reacted with specific heparanase antibody. […] Images were visualized through ×50 magnitude, with 0.82 MDC objective lens, captured with a Nikon E995 digital camera (Nikon, Tokyo, Japan), and processed with Adobe Photoshop software (Adobe Systems, San Jose, CA, USA).
FIGS. 7A-7F include micrographs of immunohistochemistry assays showing that heparanase procoagulant peptides increase the level of TF in HUVECs. Ten (10) μg/ml of peptide 16 (7B-7C) or 10 μg/ml of peptide 16AC (7E-7F) was added to HUVEC cells and compared to control cells (7A-7D). After 30 min or overnight incubation at 37° C., the cells were fixed using formaldehyde 4%, permeabilized, blocked and reacted with specific TF antibody. Images were visualized through ×50 magnitude, with 0.82 MDC objective lens, captured with a Nikon E995 digital camera (Nikon, Tokyo, Japan), and processed with Adobe Photoshop software (Adobe Systems, San Jose, CA, USA).
FIGS. 8A-8F include micrographs of immunohistochemistry assays showing that heparanase procoagulant peptides increase the level of TFPI in HUVECs. Ten (10) μg/ml of peptide 16 (8B-8C) or 10 μg/ml of peptide 16AC (8E-8F) was added to HUVEC cells and compared to control cells (8A-8D). After 30 min or overnight incubation at 37° C., the cells were fixed using formaldehyde 4%, permeabilized, blocked and reacted with specific TFPI-1 antibody. Images were visualized through ×50 magnitude, with 0.82 MDC objective lens, captured with a Nikon E995 digital camera (Nikon, Tokyo, Japan), and processed with Adobe Photoshop software (Adobe Systems, San Jose, CA, USA).
FIGS. 9A-9F include micrographs of immunohistochemistry assays showing that heparanase procoagulant peptides increase the level of TFPI-2 in HUVECs. Ten (10) μg/ml of peptide 16 (9B-9C) or 10 μg/ml of peptide 16AC (9E-9F) was added to HUVEC cells and compared to control cells (9A-9D). After 30 min or overnight incubation at 37° C., the cells were fixed using formaldehyde 4%, permeabilized, blocked and reacted with specific TFPI-2 antibody. Images were visualized through ×50 magnitude, with 0.82 MDC objective lens, captured with a Nikon E995 digital camera (Nikon, Tokyo, Japan), and processed with Adobe Photoshop software (Adobe Systems, San Jose, CA, USA).
Briefly, 10 μg/ml of peptide 16 or 10 μg/ml of peptide 16AC was added to HUVEC cells and compared to control cells (6A-6D). After 30 min or overnight incubation at 37° C., the cells were fixed using formaldehyde 4%, permeabilized, blocked and reacted with specific antibodies targeting heparanase, TF, TFPI-1, and TFPI-2 (FIGS. 6-9, respectively).

[2] = test system: HEK-293 cells with full length TF (TF) or truncated TF; assay: p-p38 signaling in TF-transfected HEK-293 cells (western blot); assay type: cell-based; settings: 2 hours; cells with truncated TF devoid of the intracellular part
Method: FIG. 12 includes a vertical bar graph and a micrograph of a western blot analysis. Procoagulant peptide 16AC was added for 2 hours to transfected HEK-293 cells with full length TF (TF) or truncated TF devoid of the intracellular part (ΔTF). […] Control—vector only (Vo); transfection with the empty plasmid, with no additional DNA.
Additionally, the inventor explored binding interaction between the procoagulant peptide of the invention and TF. Briefly, the procoagulant peptide 16AC was added for 2 hours to transfected HEK-293 cells with full length TF (TF) or truncated TF devoid of the intracellular part (ATF).

HUVEC cells [3] = assay: HUVEC migration, scratch (artificial gap) assay; assay type: cell-based, human; settings: 10 μg/ml; 4 hours; compared to the control and the non-modified peptide 16
Method: FIG. 11 includes micrographs showing that procoagulant peptides increase endothelial cells migration. HUVEC cells were seeded in 35 mm dishes. At confluence of 90%, artificial gap was created using 1,000-μl standard pipette tip. Plate was washed twice with PBS to remove cell debris and incubated with either peptide 16 or 16AC (10 μg/ml). Representative photos of the scratched area after 4 hours are presented. Images were visualized through ×50 magnitude, with 0.82 MDC objective lens, captured with a Nikon E995 digital camera (Nikon, Tokyo, Japan), and processed with Adobe Photoshop software (Adobe Systems, San Jose, CA, USA).
Briefly, HUVEC cells were seeded in 35 mm dishes. At confluence of 90%, artificial gap was created using 1,000 μl standard pipette tip. Plate was washed twice with PBS to remove cell debris and incubated with either peptide 16 or 16AC (10 μg/ml).

| Substance | TF level (staining) (HUVEC cells [1]) | TFPI level (staining) (HUVEC cells [1]) | TFPI-2 level (staining) (HUVEC cells [1]) | heparanase level (staining) (HUVEC cells [1]) | increase in p-p38 intracellular signaling [2] | migrating HUVEC cells (HUVEC cells [3]) |
| --- | --- | --- | --- | --- | --- | --- |
| GSKRRKLRVYLHCT [Peptide 16, peptide comprising the procoagulant domain of heparanase, non-modified] | strong staining after overnight incubation | strong staining after overnight incubation | strong staining after overnight incubation | strong staining after overnight incubation | – | – |
| acetyl-GSKRRKLRVYLHCT-amid (Ac-GSKRRKLRVYLHCT-NH2) [Peptide 16AC, peptide 16 comprising a C-terminal amid group and an N-terminal acetyl group] | strong staining after overnight incubation | strong staining after overnight incubation | strong staining after overnight incubation | strong staining after overnight incubation | not observed | substantial increase in migrating HUVEC cells |
